Assay results reported in patent publication US20250003877A1, “Silyl Bridged Dyes” (priority 2021, published 2025).

Tests used:
[1] = PBS
[2] = type: physicochemical
Description: Strain-promoted lowering of the Si σ* energy in cyclic silanes is another approach to red-shift emission. Treatment of 1-1 with cyclohexyl dichlorosilane yielded the expected Si-rhodamine dye (Scheme 1A). However, the reactions with the corresponding five and four-membered ring analogs yielded many side products. The cyclopentyl analog 028 was obtained in good yield through an alternate synthetic pathway (Scheme 4), but the four-membered ring analog could not be isolated by either route. The silacyclopentyl analog is red-shifted compared to 001 and compound 014, consistent with a strain-induced LUMO-lowering effect (Table 3).
Scheme 10. Instability of silacyclopentyl dye 028 in solution. Proposed ring-opened product in methanol (the solvent used for HRMS analysis).

[3] = target: T1, SNAP-tag (pSNAPf-H2B) in HeLa cells (Homo sapiens, UniProt P16455, A127T/A154D/C150Q/C62A/E30R/G131K/G132T/G153L/K125A/K32I/L33F/M134L/N157G/Q115S/Q116H/R128A/R135S/S151G/S152D/S159E); experiment: Live cell imaging of SNAP-tag-expressing cells with Si-bridge dyes; type: cell-based; settings: 3 μM dye, 30 min, 37° C., washed, HeLa transfected with pSNAPf-H2B
T1 construct: host or cells: HeLa cells, transient transfection with Lipofectamine 2000
T1 sequence (P16455 1-182 E30R/K32I/L33F/C62A/Q115S/Q116H/K125A/A127T/R128A/G131K/G132T/M134L/R135S/C150Q/S151G/S152D/G153L/A154D/N157G/S159E limits assumed): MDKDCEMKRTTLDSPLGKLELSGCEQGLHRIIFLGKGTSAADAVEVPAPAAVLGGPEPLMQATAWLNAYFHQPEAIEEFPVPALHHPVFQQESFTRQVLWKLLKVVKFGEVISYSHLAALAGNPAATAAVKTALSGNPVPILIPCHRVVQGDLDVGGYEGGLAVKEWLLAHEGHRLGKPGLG
Experimental: HeLa cells were seeded in 35 mm glass bottom dishes (Cellvis, catalog no. D35-28-O-N), and transfected with […] control plasmid (Addgene #101124). Transient transfections were performed using Lipofectamine 2000 (Invitrogen, catalog no. 1168019) following the manufacturer's instructions. HeLa cell labeling and confocal imaging were performed 24 hr after transfection. Labeling with SNAP-Cell® 647 SiR (New England Biolabs, catalog no. […]) and new dyes 065 and 066 containing benzylguanine SNAP-tag ligands were performed following the manufacturer's instructions. SNAP-tag is another popular system for labeling fusion proteins. SNAP-tag is more promiscuous towards its substrates than HaloTag, and thus it was anticipated that the relative fluorogenic behavior for each Si-bridge dye isomer would differ from the stark facial selectivity results seen above with Hoechst probes and HaloTag. Briefly, cells were incubated with 3 μM dye in cell culture medium for 30 min at 37° C. The cells were then washed three times with tissue culture medium and incubated in fresh medium for 30 minutes. The medium was replaced one more time to remove unreacted […] before imaging. […] Dyes fluorescing in the Cy5 channel were excited with the HeNe (633 nm) laser at a 15% intensity and detected through a 640-615 band pass filter and […] pinhole. […]

Row | Compound | Brightness (ϕ × ε) [1] | Em (nm) [1] | Ex (nm) [1] | ε (M^−1 cm^−1) [1] | ϕ (quantum yield) ([1]; pH 7.4) | chemical stability in solution [2] | labeling of SNAP-tag [3]
1 | Cc1ccccc1C1=C2C=CC(=[N+](C)C)C=C2[Si]2(CCCC2)c2cc(N(C)C)ccc21 [Compound 028, N-(7-(Dimethylamino)-10-(o-tolyl)-3H-spiro[dibenzo[b,e]siline-5,1′-silolan]-3-ylidene)-N-methylmethanaminium] | 54,826 | 671 nm | 653 nm | 158,000 M^−1 cm^−1 | 0.35 | chemically unstable in solution | –
2 | CN(C)c1ccc2c(c1)[Si@](C)(CCCSCC(=O)NCc1ccc(COc3nc(N)nc4[nH]cnc34)cc1)c1cc(N(C)C)ccc1[C@]21OC(=O)c2ccccc21 [Compound 065, N-(4-(((2-Amino-9H-purin-6-yl)oxy)methyl)benzyl)-2-((3-((5s,10s)-3,7-bis(dimethylamino)-5-methyl-3′-oxo-3′H,5H-spiro[dibenzo[b,e]siline-10,1′-isobenzofuran]-5-yl)propyl)thio)acetamide] | – | – | – | – | – | – | labeled SNAP-tag
3 | CN(C)c1ccc2c(c1)[Si@](C)(CCCSCC(=O)NCc1ccc(COc3nc(N)nc4[nH]cnc34)cc1)c1cc(N(C)C)ccc1[C@@]21OC(=O)c2ccccc21 [Compound 066, N-(4-(((2-Amino-9H-purin-6-yl)oxy)methyl)benzyl)-2-((3-((5r,10r)-3,7-bis(dimethylamino)-5-methyl-3′-oxo-3′H,5H-spiro[dibenzo[b,e]siline-10,1′-isobenzofuran]-5-yl)propyl)thio)acetamide] | – | – | – | – | – | – | labeled SNAP-tag
